This note sets out measurements from patent publication US11820766B2, “Monoacylglycerol lipase modulators” (Janssen Pharmaceutica NV, priority 2018, dated 2023).

One assay concerns the target T1, human MGL from HeLa cells (Homo sapiens, UniProt Q99685).
T1 construct: combining endogenously expressed MGL from HeLa cells with test compounds; endogenous in cells; host or cells: HeLa cells / cell homogenates
T1 sequence (Q99685 1-303): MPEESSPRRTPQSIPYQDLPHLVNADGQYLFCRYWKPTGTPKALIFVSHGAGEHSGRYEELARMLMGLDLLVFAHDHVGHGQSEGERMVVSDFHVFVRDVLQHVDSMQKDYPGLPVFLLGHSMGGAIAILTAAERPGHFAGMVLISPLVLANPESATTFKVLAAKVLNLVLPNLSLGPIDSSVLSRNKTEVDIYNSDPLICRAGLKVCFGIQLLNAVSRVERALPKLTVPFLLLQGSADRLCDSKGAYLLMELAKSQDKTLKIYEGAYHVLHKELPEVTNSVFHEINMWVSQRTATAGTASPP
Put plainly: In vitro MGL activity assay: [glycerol-1,3-3H]-oleyl glycerol cleavage by MGL from HeLa cells. The following applies: 300 nM [Glycerol-1,3-3H]-oleyl glycerol, one hour. It is filed as biochemical. The text has this:
MGL is the predominant hydrolase in HeLa cells/cell homogenates.
In the case of `COc1nccc(C(=O)N2CCc3c(nn(C)c3-c3ccc(F)c(C(F)F)c3)[C@@H]2C)c1C` [Example 593, [(7S)-3-[3-(Difluoromethyl)-4-fluoro-phenyl]-2,7-dimethyl-5,7-dihydro-4H-pyrazolo[3,4-c]pyridin-6-yl]-(2-methoxy-3-methyl-4-pyridyl)methanone], it took 57 nM to reach half-maximal inhibition (IC50).

In the case of `C[C@H]1c2nn(C)c(-c3cccc4cc[nH]c34)c2CCN1C(=O)c1ccc2ncccc2c1` [Example 531, [(7S)-3-(1H-Indol-7-yl)-2,7-dimethyl-5,7-dihydro-4H-pyrazolo[3,4-c]pyridin-6-yl]-(6-quinolyl)methanone], the IC50 is 22.9 nM.

With `C[C@H]1c2nn(C)c(-c3ccc(F)c(F)c3F)c2CCN1C(=O)c1ccc2ncccc2c1` [Example 515, [(7S)-2,7-Dimethyl-3-(2,3,4-trifluorophenyl)-5,7-dihydro-4H-pyrazolo[3,4-c]pyridin-6-yl]-(6-quinolyl)methanone], inhibition was half-maximal at 52.2 nM (IC50). With `COc1cc(-c2c3c(nn2C)[C@H](C)N(C(=O)c2ccc4ncccc4c2)CC3)ccn1` [Example 526, [(7S)-3-(2-Methoxy-4-pyridyl)-2,7-dimethyl-5,7-dihydro-4H-pyrazolo[3,4-c]pyridin-6-yl]-(6-quinolyl)methanone], half-maximal inhibition (IC50) required 502 nM. Still for that read-out and setting: the same measure for `CC1c2nn(C34CC(C3)C4)c(-c3ccccc3)c2CCN1C(=O)c1cnn(C)c1C1CC1` (racemic) [Example 615, racemic-(2-(Bicyclo[1.1.1]pentan-1-yl)-7-methyl-3-phenyl-2,4,5,7-tetrahydro-6H-pyrazolo[3,4-c]pyridin-6-yl)(5-cyclopropyl-1-methyl-1H-pyrazol-4-yl)methanone]: 821 nM; for `Cc1c(C(=O)N2CCc3c(nn(C)c3-c3cc(F)c(F)c(F)c3)[C@@H]2C)nn2c1COC(C)(C)C2` [Example 557, [(7S)-2,7-Dimethyl-3-(3,4,5-trifluorophenyl)-5,7-dihydro-4H-pyrazolo[3,4-c]pyridin-6-yl]-(3,6,6-trimethyl-4,7-dihydropyrazolo[5,1-c][1,4]oxazin-2-yl)methanone]: 1840 nM; for `C[C@H]1c2nn(C)c(-c3cc(F)c(F)c(F)c3)c2CCN1C(=O)c1cn(-c2ccccc2)cn1` [Example 601, [(7S)-2,7-Dimethyl-3-(3,4,5-trifluorophenyl)-5,7-dihydro-4H-pyrazolo[3,4-c]pyridin-6-yl]-(1-phenylimidazol-4-yl)methanone]: 252 nM. The molecule `C[C@H]1c2nn(C)c(-c3cc(F)c(F)c(F)c3)c2CCN1C(=O)c1ccc2nnc(C(F)F)n2c1` [Example 440, [3-(Difluoromethyl)-[1,2,4]triazolo[4,3-a]pyridin-6-yl]-[(7S)-2,7-dimethyl-3-(3,4,5-trifluorophenyl)-5,7-dihydro-4H-pyrazolo[3,4-c]pyridin-6-yl]methanone] yielded an IC50 of 865 nM.

Staying with this assay, now noted: 300 nM [Glycerol-1,3-3H]-oleyl glycerol, one hour incubation.
`C[C@H]1c2nn(C)c(-c3cc(F)c(F)c(F)c3)c2CCN1C(=O)c1cc(F)ccc1-n1cncn1` [Example 281, [(7S)-2,7-Dimethyl-3-(3,4,5-trifluorophenyl)-5,7-dihydro-4H-pyrazolo[3,4-c]pyridin-6-yl]-[5-fluoro-2-(1,2,4-triazol-1-yl)phenyl]methanone]: the midpoint of inhibition, the IC50, lay at 9.01 nM. On the same count and under the same terms, the same measure for `C[C@H]1c2nn(C)c(-c3cc(F)cc(F)c3)c2CCN1C(=O)c1ccc2nccnc2c1` (single isomer, unassigned) [Example 168]: 7.04 nM.

`Cn1nc2c(c1-c1ccccc1)CCN(C(=O)c1sc3ccccc3c1Cl)C2` [Example 41, (3-Chlorobenzo[b]thiophen-2-yl)(2-methyl-3-phenyl-2,4,5,7-tetrahydro-6H-pyrazolo[3,4-c]pyridin-6-yl)methanone] had an IC50 of 64.6 nM.

`C[C@H]1c2nn(C)c(-c3cc(F)c(F)c(F)c3)c2CCN1C(=O)c1nccc2occc12` [Example 214, (S)-(2,7-Dimethyl-3-(3,4,5-trifluorophenyl)-2,4,5,7-tetrahydro-6H-pyrazolo[3,4-c]pyridin-6-yl)(furo[3,2-c]pyridin-4-yl)methanone] had an IC50 of 23.5 nM.

A word on the IC50: it is the midpoint of a concentration-inhibition curve. Low readings indicate inhibition by little substance, high ones a need for much substance.
